The text below walks through data of US12516039B2, “N-linked isoquinoline amides as LRRK2 inhibitors, pharmaceutical compositions, and uses thereof” (Merck Sharp & Dohme LLC, priority 2020, dated 2026).

Structures are written as SMILES.

For one assay, the target named is T1, GST-tagged truncated human mutant G2019S LRRK2 (Homo sapiens, UniProt Q5S007, G2019S).
T1 construct: GST-tagged truncated human mutant G2019S LRRK2; purchased Life Technologies Corporation (Carlsbad, CA)
T1 sequence (Q5S007 970-2527 G2019S limits assumed): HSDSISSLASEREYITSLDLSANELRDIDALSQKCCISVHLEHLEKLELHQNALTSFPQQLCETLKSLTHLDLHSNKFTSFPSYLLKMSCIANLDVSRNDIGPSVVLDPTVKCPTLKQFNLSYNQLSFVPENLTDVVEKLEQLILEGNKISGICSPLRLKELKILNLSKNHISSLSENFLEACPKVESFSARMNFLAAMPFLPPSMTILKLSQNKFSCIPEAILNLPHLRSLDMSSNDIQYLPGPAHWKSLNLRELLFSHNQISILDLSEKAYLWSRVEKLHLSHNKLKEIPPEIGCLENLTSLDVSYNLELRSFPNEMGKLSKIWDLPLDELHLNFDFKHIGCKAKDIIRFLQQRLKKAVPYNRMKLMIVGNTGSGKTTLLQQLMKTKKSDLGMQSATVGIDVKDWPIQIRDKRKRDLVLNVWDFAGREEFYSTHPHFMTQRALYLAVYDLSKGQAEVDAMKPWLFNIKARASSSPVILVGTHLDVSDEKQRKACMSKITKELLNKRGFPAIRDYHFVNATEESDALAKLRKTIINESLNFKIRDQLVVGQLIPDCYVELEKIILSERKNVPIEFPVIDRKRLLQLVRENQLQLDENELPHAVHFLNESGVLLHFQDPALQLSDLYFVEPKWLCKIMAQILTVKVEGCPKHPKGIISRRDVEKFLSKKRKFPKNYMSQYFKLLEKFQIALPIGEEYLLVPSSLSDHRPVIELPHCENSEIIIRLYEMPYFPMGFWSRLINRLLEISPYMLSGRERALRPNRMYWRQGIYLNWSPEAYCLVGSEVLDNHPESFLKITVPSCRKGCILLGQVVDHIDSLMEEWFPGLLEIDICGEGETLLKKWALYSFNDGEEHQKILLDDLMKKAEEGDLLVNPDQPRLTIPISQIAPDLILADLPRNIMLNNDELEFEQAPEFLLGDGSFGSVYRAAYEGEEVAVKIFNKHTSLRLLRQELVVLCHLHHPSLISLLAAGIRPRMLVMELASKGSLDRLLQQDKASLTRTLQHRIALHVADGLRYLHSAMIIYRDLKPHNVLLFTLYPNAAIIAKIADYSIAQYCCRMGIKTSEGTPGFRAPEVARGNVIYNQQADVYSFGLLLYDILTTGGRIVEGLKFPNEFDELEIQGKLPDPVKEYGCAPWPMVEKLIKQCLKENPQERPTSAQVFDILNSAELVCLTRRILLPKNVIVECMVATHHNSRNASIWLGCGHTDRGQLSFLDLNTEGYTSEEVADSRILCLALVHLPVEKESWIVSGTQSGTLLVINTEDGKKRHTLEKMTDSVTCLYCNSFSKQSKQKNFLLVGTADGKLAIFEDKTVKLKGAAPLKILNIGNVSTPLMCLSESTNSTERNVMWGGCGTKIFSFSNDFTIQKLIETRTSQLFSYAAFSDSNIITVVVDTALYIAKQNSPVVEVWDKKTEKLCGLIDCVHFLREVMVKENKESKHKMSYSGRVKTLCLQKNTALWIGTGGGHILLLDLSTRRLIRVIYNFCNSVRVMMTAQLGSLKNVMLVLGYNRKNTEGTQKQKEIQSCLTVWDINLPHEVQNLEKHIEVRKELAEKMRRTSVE
The assay can be described thus: LRRK2 G2019S Km ATP LanthaScreen assay. Format: biochemical. To be noted: 134 μM ATP (Km ATP), LRRKtide substrate, mean of several tests. In a few lines: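 GST-tagged truncated human LRRK2 G2019S (1.25 nM enzyme solution) was preincubated 15 min with compound, then reacted 90 min at ambient temperature with fluorescein-LRRKtide (400 nM solution) and 134 μM ATP (Km) in Tris pH 8.5. EDTA stop; Tb anti-phospho-LRRKtide TR-FRET (520/495 ratio). IC50 from 4-parameter fits, mean of several runs.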
For the molecule `Cc1cc2cnc(NC(=O)C3CC3c3ccccn3)cc2cc1N1CCN(C2(C)CCOC2)CC1` (stereo not drawn) [Ex-9.21], the “LRRK2 pIC50” value was 10.09. As to `CC1(N2CCN(c3cc4cc(NC(=O)C5CC56CC6)ncc4cc3Cl)CC2)COC1` (stereo not drawn) [Ex-4.4], the “LRRK2 pIC50” value was determined as 7.85.

Staying with this assay, now noted: 134 μM ATP (Km ATP), LRRKtide substrate, mean of several tests, read-out: LRRK2 pIC50 (converted).
Turning to `CC1C(C(=O)Nc2cc3cc(N4CCN(C5(C)COCC5O)CC4)c(Cl)cc3cn2)C1c1ccccn1` (single isomer, unassigned) [Ex-11.4, (1R,2R,3R, or 1R,2S,3R, or 1S,2R,3S, or 1S,2S,3S)-N-(7-chloro-6-(4-((3R,4R or 3S,4S)-4-hydroxy-3-methyltetrahydrofuran-3-yl)piperazin-1-yl)isoquinolin-3-yl)-2-methyl-3-(pyridin-2-yl)cyclopropane-1-carboxamide], the IC50 is 977 pM. Still for that read-out and setting: the result for `CC1(C)CC(C(=O)Nc2cc3cc(N4CCN(C5(C)COCC5O)CC4)c(Cl)cc3cn2)CO1` (single isomer, unassigned) [Ex-1.21, (R or S)-N-(7-chloro-6-(4-((3R,4R or 3S,4S)-4-hydroxy-3-methyltetrahydrofuran-3-yl)piperazin-1-yl)isoquinolin-3-yl)-5,5-dimethyltetrahydrofuran-3-carboxamide] reads 1740 pM; that for `Cn1ncc(C2CC2C(=O)Nc2cc3cc(N4CCN(C5(C)CCOC5)CC4)c(Cl)cc3cn2)c1C(F)(F)F` (single isomer, unassigned) [Ex-10.25, (1R,2R or 1S,2S)-N-[7-chloro-6-[4-((R or S)-3-methyltetrahydrofuran-3-yl)piperazin-4-ium-1-yl]-3-isoquinolyl]-2-[1-methyl-5-(trifluoromethyl)pyrazol-4-yl]cyclopropanecarboxamide], 3720 pM. For the molecule `C[C@]1(O)COC[C@@]1(C)N1CCN(c2cc3cc(NC(=O)[C@@H]4CC45CCOCC5)ncc3cc2Cl)CC1` (single isomer, unassigned) [Ex-17.1, (R) or (S)-N-(7-chloro-6-((3R,4R) or (3S,4S)-4-(4-hydroxy-3,4-dimethyltetrahydrofuran-3-yl)piperazin-1-yl)isoquinolin-3-yl)-6-oxaspiro[2.5]octane-1-carboxamide], the IC50 is 81.3 pM. Take `CCOC1CC2(C1)CC2C(=O)Nc1cc2cc(N3CCN(C4(C)COCC4F)CC3)c(Cl)cc2cn1` (single isomer, unassigned) [Ex-10.24, (1R,2R or 1S,2S)-N-[7-chloro-6-[4-((3R,4R or 3S,4S)-4-fluoro-3-methyl-tetrahydrofuran-3-yl)piperazin-1-yl]-3-isoquinolyl]-5-ethoxy-spiro[2.3]hexane-2-carboxamide]: the IC50 was 81.3 pM. The same measure, in the same setting: the result for `O=C(Nc1cc2cc(N3C(=O)C4CCC3C4)ccc2cn1)C1CC1` (single isomer, unassigned) [Ex-5.2] reads 25700 pM. On the same count and under the same terms, to `Cc1cc2cnc(NC(=O)C3C(C)C3c3cnn(C)c3)cc2cc1N1CCN(C2(C)CCOC2)CC1` (single isomer, unassigned) [Ex-9.12] belongs 81.3 pM; to `CCC1C(C(=O)Nc2cc3cc(N4CCN(C5(C)COCC5F)CC4)c(Cl)cc3cn2)C1c1ccn(C)n1` (single isomer, unassigned) [Ex-10.50, (1R,2R,3R, 1R,2S,3R, or 1S,2R,3S, or 1S,2S,3S)-N-[7-chloro-6-[4-((3R,4R or 3S,4S)-4-fluoro-3-methyl-tetrahydrofuran-3-yl)piperazin-1-yl]-3-isoquinolyl]-2-ethyl-3-(1-methylpyrazol-3-yl)cyclopropanecarboxamide], 81.3 pM. Take `CC1(N2CCN(c3cc4cc(NC(=O)C5CC5c5cccs5)ncc4cc3Cl)CC2)COCC1O` (single isomer, unassigned) [Ex-10.14, (1R,2R or 1R,2S)-N-[7-chloro-6-[4-((3R,4R or 3S,4S)-4-hydroxy-3-methyl-tetrahydrofuran-3-yl)piperazin-1-yl]-3-isoquinolyl]-2-(2-thienyl)cyclopropanecarboxamide]: the IC50 was 4270 pM. For `CCC1C(C(=O)Nc2cc3cc(N4CCN(C5(C)COCC5F)CC4)c(C)cc3cn2)C1c1cnn(C)c1` (stereo not drawn) [Ex-9.20], the IC50 was 81.3 pM. Same read-out and setting: the result for `Cn1ncc(C2CC2C(=O)Nc2cc3cc(N4CCN(C5(C)COCC5F)CC4)c(Cl)cc3cn2)c1C(F)(F)F` (single isomer, unassigned) [Ex-10.62, (1R,2R or 1S,2S)-N-[7-chloro-6-[4-((3R,4R or 3S,4S)-4-fluoro-3-methyl-tetrahydrofuran-3-yl)piperazin-4-ium-1-yl]-3-isoquinolyl]-2-[1-methyl-5-(trifluoromethyl)pyrazol-4-yl]cyclopropanecarboxamide] reads 81.3 pM; that for `CC1(N2CCN(c3cc4cc(NC(=O)C5CC56CCOCC6)ncc4cc3Cl)CC2)CCOC1` (single isomer, unassigned) [Ex-5.14], 302000 pM; that for `C[C@H]1CN(C2(C)COCC2O)CCN1c1cc2cc(NC(=O)C3CC34CCOCC4)ncc2cc1Cl` (single isomer, unassigned) [Ex-14.2, N-(7-chloro-6-((2R or 2S)-4-(4-(3R,4R or 3S,4S)-hydroxy-3-methyltetrahydrofuran-3-yl)-2-methylpiperazin-1-yl)isoquinolin-3-yl)-6-oxaspiro[2.5]octane-1-carboxamide], 81.3 pM. On the same count and under the same terms, the result for `C[C@H]1CN(C2(C)COCC2O)CCN1c1cc2cc(NC(=O)C3CC34CCOCC4)ncc2cc1Cl` (single isomer, unassigned) [Ex-14.1, N-(7-chloro-6-((2R or 2S)-4-(4-(3R,4R or 3S,4S)-hydroxy-3-methyltetrahydrofuran-3-yl)-2-methylpiperazin-1-yl)isoquinolin-3-yl)-6-oxaspiro[2.5]octane-1-carboxamide] reads 87100 pM; that for `Cc1cc2cnc(NC(=O)C3C(C)C3c3cnn(C)c3)cc2cc1N1CCN(C2(C)CCOC2)CC1` (single isomer, unassigned) [Ex-9.14], 81.3 pM. In the case of `CC1(O)CCN(c2cc3cc(NC(=O)C4CC4)ncc3cc2Cl)CC1` [Ex-4.2], the IC50 was 10500 pM. Consider `Cc1cc2cnc(NC(=O)C3CCOC(C)(C)C3)cc2cc1N1CCN(C2(C)CCOC2)CC1` (single isomer, unassigned) [Ex-10.42, (4R or 4S)-2,2-dimethyl-N-[7-methyl-6-[4-((R or S)-3-methyltetrahydrofuran-3-yl)piperazin-1-yl]-3-isoquinolyl]tetrahydropyran-4-carboxamide], for which the IC50 was 525 pM. On the same count and under the same terms, the result for `CC1(N2CCN(c3cc4cc(NC(=O)C5CC5)ncc4cc3F)CC2)COCC1O` (single isomer, unassigned) [Ex-1.6, (3R,4R or 3S,4S)-N-(7-fluoro-6-(4-(4-hydroxy-3-methyltetrahydrofuran-3-yl)piperazin-1-yl)isoquinolin-3-yl)cyclopropanecarboxamide] reads 912000 pM. For `CC1(N2CCN(c3cc4cc(NC(=O)C5CCC56CCOCC6)ncc4cc3Cl)CC2)COCC1O` (single isomer, unassigned) [Ex-1.27, (R or S)-N-(7-chloro-6-(4-((3R,4R or 3S,4S)-4-hydroxy-3-methyltetrahydrofuran-3-yl)piperazin-1-yl)isoquinolin-3-yl)-7-oxaspiro[3.5]nonane-1-carboxamide], the IC50 was 1290 pM. Consider `Cc1cc2cnc(NC(=O)C3CC3c3cnn(C)c3C(F)(F)F)cc2cc1N1CCN(C2(C)CCOC2)CC1` (single isomer, unassigned) [Ex-10.33, (1R,2R or 1S,2S)-N-[7-methyl-6-[4-((R or S)-3-methyltetrahydrofuran-3-yl)piperazin-1-yl]-3-isoquinolyl]-2-[1-methyl-5-(trifluoromethyl)pyrazol-4-yl]cyclopropanecarboxamide], for which the IC50 is 4790 pM.

For the molecule `Cn1ncc(C2CC2C(=O)Nc2cc3cc(N4CCN(C5(C)CCOC5)CC4)c(Cl)cc3cn2)c1C(F)(F)F` (single isomer, unassigned) [Ex-10.26, (1R,2R or 1S,2S)-N-[7-chloro-6-[4-((R or S)-3-methyltetrahydrofuran-3-yl)piperazin-4-ium-1-yl]-3-isoquinolyl]-2-[1-methyl-5-(trifluoromethyl)pyrazol-4-yl]cyclopropanecarboxamide], the IC50 was 525000 pM. In the case of `CC1(C)OCCC1C(=O)Nc1cc2cc(N3CCN(C4(C)COCC4O)CC3)c(Cl)cc2cn1` (single isomer, unassigned) [Ex-1.23, (R or S)-N-(7-chloro-6-(1-((3R,4R or 3S,4S)-4-hydroxy-3-methyltetrahydrofuran-3-yl)piperazin-4-yl)isoquinolin-3-yl)-2,2-dimethyltetrahydrofuran-3-carboxamide], the IC50 is 7410 pM. Same read-out and setting: the result for `CCOC1CC2(C1)CC2C(=O)Nc1cc2cc(N3CCN(C4(C)COCC4F)CC3)c(Cl)cc2cn1` (single isomer, unassigned) [Ex-10.23, (1R,2R or 1S,2S)-N-[7-chloro-6-[4-((3R,4R or 3S,4S)-4-fluoro-3-methyl-tetrahydrofuran-3-yl)piperazin-1-yl]-3-isoquinolyl]-5-ethoxy-spiro[2.3]hexane-2-carboxamide] reads 724 pM; that for `CC1(N2CCN(c3cc4cc(NC(=O)C5CC56CC6)ncc4cc3Cl)CC2)COCC1F` (single isomer, unassigned) [Ex-10.80, (R or S)-N-[7-chloro-6-[4-((3R,4R or 3S,4S)-4-fluoro-3-methyl-tetrahydrofuran-3-yl)piperazin-1-yl]-3-isoquinolyl]spiro[2.2]pentane-2-carboxamide], 123 pM. Same read-out and setting: the result for `CC1(N2CCN(c3cc4cc(NC(=O)C5CCC5c5ccccn5)ncc4cc3Cl)CC2)COCC1O` (single isomer, unassigned) [Ex-11.6, (1R,2R or 1S,2S)-N-(7-chloro-6-(4-((3R,4R or 3S,4S)-4-hydroxy-3-methyltetrahydrofuran-3-yl)piperazin-1-yl)isoquinolin-3-yl)-2-(pyridin-2-yl)cyclobutane-1-carboxamide] reads 132 pM.
